Experimental data published in patent US11547681B2, “N-acylethanolamide derivatives and uses thereof” (ELIEM THERAPEUTICS, INC., priority 2016, dated 2023).

Experiment: in vitro
Settings: for Concentration (μM) of analyte PEA, 0 min / Concentration (μM) of analyte PEA, 10 min / Concentration (μM) of analyte PEA, 20 min / Concentration (μM) of analyte PEA, 30 min / Concentration (μM) of analyte PEA, 60 min / % Remaining of Initial (n = 1), 0 min / % Remaining of Initial (n = 1), 10 min / % Remaining of Initial (n = 1), 20 min / % Remaining of Initial (n = 1), 30 min / % Remaining of Initial (n = 1), 60 min: 1 μM; for % Remaining of Initial (n = 1), 0 min: s9, 0 h; for % Remaining of Initial (n = 1), 10 min: s9, 10 min; for % Remaining of Initial (n = 1), 20 min: s9, 20 min; for % Remaining of Initial (n = 1), 30 min: s9, 0.5 h; for % Remaining of Initial (n = 1), 60 min: s9, 1 h; for half-life at 1 μM: s9, Half-life (min)
Experimental: Reaction mixture, minus cofactors, was prepared as described below. Test article was added into the reaction mixture at a final concentration of 1 μM. […] An aliquot of the reaction mixture (without cofactor cocktail) was equilibrated in a shaking water bath at 37° C. for 3 minutes. The reaction was initiated by the addition of cofactor cocktail (see below), and the mixture was then incubated in a shaking water bath at 37° C. Aliquots (100 μL) were withdrawn 0, 10, 20, 30 and 60 minutes. Test article samples were immediately combined with 300 μL of ice-cold acetonitrile containing 1% formic acid. Control samples were immediately combined with 400 μL of ice-cold 50/50 acetonitrile (ACN)/dH2O containing 0.1% formic acid and internal standard to terminate the reaction. Samples were then mixed and centrifuged to precipitate proteins. Calibration standards were prepared in matched matrix. Samples and standards were assayed by LC-MS/MS using electrospray ionization for both the dosed prodrug and the expected drug (PEA). Analytical conditions are outlined in Appendix 8-1. Test article concentration at each time point was compared to the test article concentration at time 0 to determine the percent remaining at each time point. Half-lives were calculated using GraphPad software, fitting to a single-phase exponential decay equation.
Reaction mixture, minus cofactors, was prepared as described below. Test article was added into the reaction mixture at a final concentration of 1 μM. […] An aliquot of the reaction mixture (without cofactor cocktail) was equilibrated in a shaking water bath at 37° C. for 5 minutes. Reaction was initiated by the addition of cofactor cocktail (see below), and mixture was then incubated in a shaking water bath at 37° C. Aliquots (100 μL) were withdrawn at 0, 10, 20, 30, and 60 minutes. Test article samples were immediately combined with 300 μL of ice-cold acetonitrile containing 1% formic acid. Control samples were immediately combined with 400 μL of ice-cold 50/50 acetonitrile (ACN)/dH2O containing 0.1% formic acid and internal standard to terminate the reaction. Samples were then mixed and centrifuged to precipitate proteins. Calibration standards were prepared in matched matrix. Samples and standards were assayed by LC-MS/MS using electrospray ionization for both dosed prodrug and expected drug (PEA). Analytical conditions are outlined in Appendix 10-1. Test article concentration at each time point was compared to test article concentration at time 0 to determine the percent remaining at each time point. Half-lives were calculated using GraphPad software, fitting to a single-phase exponential decay equation.
The reaction mixture, minus cofactors, was prepared as described below. Test article was added into the reaction mixture at a final concentration of 1 μM. […] An aliquot of the reaction mixture (without cofactor cocktail) was equilibrated in a shaking water bath at 37° C. for 3 minutes. Reaction was initiated by the addition of cofactor cocktail (see below), and the mixture was then incubated in a shaking water bath at 37° C. Aliquots (100 μL) were withdrawn at 0, 10, 20, 30, and 60 minutes. Test article samples were immediately combined with 300 μL of ice-cold acetonitrile containing 1% formic acid. Control samples were immediately combined with 400 μL of ice-cold 50/50 acetonitrile (ACN)/dH2O containing 0.1% formic acid and internal standard to terminate the reaction. Samples were then mixed and centrifuged to precipitate proteins. Calibration standards were prepared in matched matrix. Samples and standards were assayed by LC-MS/MS using electrospray ionization for both dosed prodrug and expected drug (PEA). Analytical conditions are outlined in Appendix 13-1. Test article concentration at each time point was compared to the test article concentration at time 0 to determine the percent remaining at each time point.

Concentration (μM) of analyte PEA, 0 min (both, human): 0.20 µM
Concentration (μM) of analyte PEA, 10 min (both, human): 0.23 µM
Concentration (μM) of analyte PEA, 20 min (both, human): 0.18 µM
Concentration (μM) of analyte PEA, 30 min (both, human): 0.096 µM
Concentration (μM) of analyte PEA, 60 min (both, human): 0.033 µM
% Remaining of Initial (n = 1), 0 min (both, human): 100%
% Remaining of Initial (n = 1), 10 min (both, human): 6.0%
% Remaining of Initial (n = 1), 20 min (both, human): 1.3%
% Remaining of Initial (n = 1), 30 min (both, human): <1.0%
% Remaining of Initial (n = 1), 60 min (both, human): <1.0%
Concentration (μM) of analyte PEA, 0 min (male, Beagle, dog): 0.23 µM
Concentration (μM) of analyte PEA, 10 min (male, Beagle, dog): 0.38 µM
Concentration (μM) of analyte PEA, 20 min (male, Beagle, dog): 0.35 µM
Concentration (μM) of analyte PEA, 30 min (male, Beagle, dog): 0.21 µM
Concentration (μM) of analyte PEA, 60 min (male, Beagle, dog): 0.11 µM
% Remaining of Initial (n = 1), 0 min (male, Beagle, dog): 100%
% Remaining of Initial (n = 1), 10 min (male, Beagle, dog): 5.1%
% Remaining of Initial (n = 1), 20 min (male, Beagle, dog): 2.0%
% Remaining of Initial (n = 1), 30 min (male, Beagle, dog): <1.0%
% Remaining of Initial (n = 1), 60 min (male, Beagle, dog): <1.0%
Concentration (μM) of analyte PEA, 0 min (male, CD-1, mouse): 0.51 µM
Concentration (μM) of analyte PEA, 10 min (male, CD-1, mouse): 0.26 µM
Concentration (μM) of analyte PEA, 20 min (male, CD-1, mouse): 0.19 µM
Concentration (μM) of analyte PEA, 30 min (male, CD-1, mouse): 0.12 µM
Concentration (μM) of analyte PEA, 60 min (male, CD-1, mouse): 0.022 µM
% Remaining of Initial (n = 1), 0 min (male, CD-1, mouse): 100%
% Remaining of Initial (n = 1), 10 min (male, CD-1, mouse): <1.0%
% Remaining of Initial (n = 1), 20 min (male, CD-1, mouse): <1.0%
% Remaining of Initial (n = 1), 30 min (male, CD-1, mouse): <1.0%
% Remaining of Initial (n = 1), 60 min (male, CD-1, mouse): <1.0%
half-life at 1 μM (male, CD-1, mouse): < 1 min
Concentration (μM) of analyte PEA, 0 min (male, Sprague-Dawley, rat): 0.50 µM
Concentration (μM) of analyte PEA, 10 min (male, Sprague-Dawley, rat): 0.31 µM
Concentration (μM) of analyte PEA, 20 min (male, Sprague-Dawley, rat): 0.17 µM
Concentration (μM) of analyte PEA, 30 min (male, Sprague-Dawley, rat): 0.11 µM
Concentration (μM) of analyte PEA, 60 min (male, Sprague-Dawley, rat): 0.023 µM
% Remaining of Initial (n = 1), 0 min (male, Sprague-Dawley, rat): 100%
% Remaining of Initial (n = 1), 10 min (male, Sprague-Dawley, rat): <1.0%
% Remaining of Initial (n = 1), 20 min (male, Sprague-Dawley, rat): <1.0%
% Remaining of Initial (n = 1), 30 min (male, Sprague-Dawley, rat): <1.0%
% Remaining of Initial (n = 1), 60 min (male, Sprague-Dawley, rat): <1.0%
half-life at 1 μM (male, Sprague-Dawley, rat): < 1 min
SMILES: CCCCCCCCCCCCCCCC(=O)NCCOC(=O)CCC [Compound I-2]
